Reference: US20250277012A1 (Protagonist Therapeutics, Inc., priority 2021, published 2025)
Starred links: 1 amine or outer side, 2 acyl side, 3 side chain; linkers in the order of their positions; H or OH if unused. Positions of bridges follow the written chain, without caps; N, C: chain ends. Non-standard residues stand in square brackets, D forms with d. Residues, ends and D or L forms follow the SMILES beside them. Groups on a side chain read outwards from the residue. *: point of attachment. X1 = C[N+](C)(CCNC(=O)CCCCCCCCCCCCCCCCC(=O)O)CC(=O)*; Phe(4-CF3) = N[C@@H](Cc1ccc(C(F)(F)F)cc1)C(=O)O; C18 diacid = O=C(O)CCCCCCCCCCCCCCCCC(=O)*; Lys(Me3) = C[N+](C)(C)CCCC[C@H](N)C(=O)O; Dip = N[C@H](C(=O)O)C(c1ccccc1)c1ccccc1; γGlu = O=C(O)[C@H](CCC(=O)[*:2])N[*:1]; Palmitoyl = CCCCCCCCCCCCCCCC(=O)*; NMeF = CN[C@@H](Cc1ccccc1)C(=O)O; NMeT = CN[C@H](C(=O)O)[C@@H](C)O; β3hF = N[C@H](CC(=O)O)Cc1ccccc1; dPen = CC(C)(S)[C@@H](N)C(=O)O; NMeK = CN[C@@H](CCCCN)C(=O)O; Pen = CC(C)(S)[C@H](N)C(=O)O; Isovaleryl = CC(C)CC(=O)*; NMeC = CN[C@@H](CS)C(=O)O; hCys = N[C@@H](CCS)C(=O)O; Dap = NC[C@H](N)C(=O)O; AEEA = NCCOCCOCC(=O)O; Ahx = NCCCCCC(=O)O

Target: T1, ferroportin (Homo sapiens, UniProt Q9NP59)
T1 sequence (Q9NP59 1-571): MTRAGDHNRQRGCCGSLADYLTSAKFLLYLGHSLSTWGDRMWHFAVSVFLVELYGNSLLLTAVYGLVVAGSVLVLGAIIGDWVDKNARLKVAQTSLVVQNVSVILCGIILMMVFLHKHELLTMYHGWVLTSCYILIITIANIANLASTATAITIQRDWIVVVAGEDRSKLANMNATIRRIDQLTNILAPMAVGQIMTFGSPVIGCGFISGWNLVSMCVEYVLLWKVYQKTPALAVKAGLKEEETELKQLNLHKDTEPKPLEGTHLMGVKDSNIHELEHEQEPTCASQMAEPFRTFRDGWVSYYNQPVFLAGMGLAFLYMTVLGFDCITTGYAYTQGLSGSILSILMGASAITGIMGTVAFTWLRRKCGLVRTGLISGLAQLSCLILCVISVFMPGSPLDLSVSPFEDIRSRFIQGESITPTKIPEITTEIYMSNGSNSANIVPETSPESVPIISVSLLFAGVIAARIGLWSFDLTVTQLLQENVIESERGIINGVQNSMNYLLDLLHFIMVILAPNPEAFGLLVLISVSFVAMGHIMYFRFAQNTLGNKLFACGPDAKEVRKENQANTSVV
Assay: FPN activity assay: ferroportin-GFP internalization/degradation in HEK293 cells
Type: cell-based
Parameters: expressed in transfected cells
Details: Table 6D; ferroportin-GFP internalization/degradation, at least 18 hours incubation; read-out: FPN IC50
Protocol: Following internalization, the ferroporin protein is degraded.
A retro inverse peptide is a peptide with a reversed sequence in all D amino acids. An example is that Hy-Glu-Thr-His-NH2 becomes Hy-DHis-DThr-DGlu-NH2. The EC50 of these reference compounds for ferroportin internalization/degradation was determined according to the FPN activity assay described above. These peptides served as control standards.

Row | DC50 [nM] | SMILES
1 | > 500 | CCCCCCCCCCCCCCCC(=O)NCC[N+](C)(C)CC(=O)NCCCC[C@H](NC(=O)[C@@H]1CSSC[C@H](NC(=O)[C@H](CCC(=O)OC)NC(=O)CC(C)C)C(=O)N[C@@H](Cc2c[nH]cn2)C(=O)N[C@@H](C(c2ccccc2)c2ccccc2)C(=O)N1)C(=O)NCCCCC [compound 123]

Same assay, conditions: Table 6E; ferroportin-GFP internalization/degradation, at least 18 hours incubation; read-out: FPN IC50

Row | DC50 [nM] | SMILES
2 | 10 to 100 | CC(C)CC(=O)N[C@@H](CCC(=O)O)C(=O)N[C@H](C(=O)N[C@@H](Cc1c[nH]cn1)C(=O)N[C@H](C(=O)N1CCC[C@H]1C(=O)N[C@H]1CSSC[C@@H](C(=O)N[C@@H](CCCC[N+](C)(C)C)C(=O)N[C@H](C(N)=O)C(c2ccccc2)c2ccccc2)NC1=O)C(c1ccccc1)c1ccccc1)[C@@H](C)O [compound 141] (Isovaleryl-ETH[Dip]PCC[Lys(Me3)][Dip]-NH2; disulfide 6-7)
3 | > 500 | COC(=O)CC[C@H](NC(=O)CC(C)C)C(=O)N(C)[C@H](C(=O)N[C@@H](Cc1c[nH]cn1)C(=O)N[C@H](C(=O)N1CCC[C@H]1C(=O)N[C@H]1CSSC[C@@H](C(=O)N(C)[C@@H](CCCCNC(=O)C[N+](C)(C)CCNC(=O)CCCCCCCCCCCCCCCCC(=O)O)C(=O)N(C)[C@@H](Cc2ccccc2)C(N)=O)NC1=O)C(c1ccccc1)c1ccccc1)[C@@H](C)O [compound 185] (Isovaleryl-E(OMe)[NMeT]H[Dip]PCC[NMeK](X1)[NMeF]-NH2; disulfide 6-7)

Same assay, conditions: ferroportin-GFP HEK293 cells, at least 18 hours; read-out: FPN IC50

Row | DC50 [nM] | SMILES
4 | 100 to 500 | CCCCCCCCCCCCCCCC(=O)NCCCCCC(=O)NCCCC[C@H](NC(=O)C[C@H](Cc1ccccc1)NC(=O)[C@@H](CCCCN)NC(=O)[C@@H](NC(=O)[C@@H]1CSSC[C@H](NC(=O)[C@@H](NC(=O)[C@H](CCC(=O)O)NC(=O)CC(C)C)[C@@H](C)O)C(=O)N[C@@H](C(c2ccccc2)c2ccccc2)C(=O)N2CCC[C@H]2C(=O)N1)[C@@H](C)CC)C(=O)N[C@H](CCCCN)C(N)=O [Compd ID 2, Isovaleric Acid-E-T-[Cys]-[Dpa]-P-[Cys]-I-[(D)Lys]-[bhPhe]-[Lys(Ahx_Palm)]-[(D)Lys]-NH2] (Isovaleryl-ETC[Dip]PCI[dK][β3hF]K([Ahx-Palmitoyl])[dK]-NH2; disulfide 3-6)
5 | 10 to 100 | CCCCCCCCCCCCCCCC(=O)N[C@@H](CCC(=O)NCCCC[C@H](NC(=O)[C@@H](NC(=O)[C@@H]1CSSC[C@H](NC(=O)[C@@H]2CCCN2C(=O)[C@H](Cc2ccccc2)NC(=O)[C@H](Cc2c[nH]cn2)NC(=O)[C@@H](NC(=O)[C@H](CC(=O)O)NC(=O)CC(C)C)[C@@H](C)O)C(=O)N1)[C@@H](C)CC)C(=O)N[C@@H](Cc1ccccc1)C(=O)N[C@@H](CCC(=O)O)C(=O)N1CCC[C@H]1C(=O)N[C@@H](CCCNC(=N)N)C(=O)O)C(=O)O [Compd 101] (Isovaleryl-DTHFPCCIK([γGlu-Palmitoyl])FEPR-OH; disulfide 6-7)
6 | 10 to 100 | CCCCCCCCCCCCCCCC(=O)NCCCCCC(=O)NCCCC[C@H](NC(=O)C[C@H](Cc1ccccc1)NC(=O)[C@@H](CCCCN)NC(=O)[C@@H]1CSSC[C@H](NC(=O)[C@@H]2CCCN2C(=O)[C@@H](NC(=O)[C@H](Cc2c[nH]cn2)NC(=O)[C@@H](NC(=O)[C@H](CCC(=O)O)NC(=O)CC(C)C)[C@@H](C)O)C(c2ccccc2)c2ccccc2)C(=O)N1)C(=O)N[C@H](CCCCN)C(N)=O [Compd 6] (Isovaleryl-ETH[Dip]PCC[dK][β3hF]K([Ahx-Palmitoyl])[dK]-NH2; disulfide 6-7)
7 | 100 to 500 | CCCCCCCCCCCCCCCC(=O)NCCCCCC(=O)NCCCC[C@H](NC(=O)[C@@H](NC(=O)[C@@H]1CSSCC[C@H](NC(C)=O)C(=O)N[C@@H](CCC(=O)O)C(=O)N[C@@H]([C@@H](C)O)C(=O)N[C@@H](Cc2c[nH]cn2)C(=O)N[C@@H](C(c2ccccc2)c2ccccc2)C(=O)N2CCC[C@H]2C(=O)N1)[C@@H](C)CC)C(=O)N[C@H](CC(N)=O)Cc1ccccc1 [Compd 12] (Ac-[hCys]ETH[Dip]PCIK([Ahx-Palmitoyl])[β3hF]-NH2; disulfide 1-7)
8 | 100 to 500 | CC(C)CC(=O)N[C@@H](CCC(=O)O)C(=O)N[C@H](C(=O)N[C@@H](Cc1c[nH]cn1)C(=O)N[C@H](C(=O)N1CCC[C@H]1C(=O)N[C@H]1CSSC[C@@H](C(=O)N[C@H](CCCCN)C(=O)N[C@H](CC(=O)N[C@@H](CCCCNC(=O)COCCOCCNC(=O)COCCOCCNC(=O)CC[C@H](NC(=O)CCCCCCCCCCCCCCCCC(=O)O)C(=O)O)C(=O)N[C@H](CCCCN)C(N)=O)Cc2ccccc2)NC1=O)C(c1ccccc1)c1ccccc1)[C@@H](C)O [Compd 28] (Isovaleryl-ETH[Dip]PCC[dK][β3hF]K([AEEA-AEEA-γGlu-C18 diacid])[dK]-NH2; disulfide 6-7)
9 | 100 to 500 | CCCCCCCCCCCCCCCC(=O)NCCCCCC(=O)NCCCC[C@H](NC(=O)[C@@H](NC(=O)[C@@H]1CSSCC[C@H](NC(=O)CC(C)C)C(=O)N[C@@H](CCC(=O)O)C(=O)N[C@@H]([C@@H](C)O)C(=O)N[C@@H](Cc2c[nH]cn2)C(=O)N[C@@H](C(c2ccccc2)c2ccccc2)C(=O)N2CCC[C@H]2C(=O)N1)[C@@H](C)CC)C(=O)N[C@H](CC(N)=O)Cc1ccccc1 [Compd 13] (Isovaleryl-[hCys]ETH[Dip]PCIK([Ahx-Palmitoyl])[β3hF]-NH2; disulfide 1-7)
10 | 100 to 500 | CCCCCCCCCCCCCCCC(=O)NCCCCCC(=O)NCCCC[C@H](NC(=O)C[C@H](Cc1ccccc1)NC(=O)[C@H]1CSSC[C@H](NC(=O)CC(C)C)C(=O)N[C@@H]([C@@H](C)O)C(=O)N[C@@H](Cc2c[nH]cn2)C(=O)N[C@@H](C(c2ccccc2)c2ccccc2)C(=O)N2CCC[C@H]2C(=O)N[C@@H](C)C(=O)N[C@@H]([C@@H](C)CC)C(=O)N1)C(=O)N[C@H](CCCCN)C(N)=O [compound 106] (Isovaleryl-CTH[Dip]PAI[dC][β3hF]K([Ahx-Palmitoyl])[dK]-NH2; disulfide 1-8)
11 | 10 to 100 | CCCCCCCCCCCCCCCC(=O)NCCCCCC(=O)NCCCC[C@H](NC(=O)C[C@H](Cc1ccccc1)NC(=O)[C@@H]1NC(=O)[C@H]([C@@H](C)CC)NC(=O)[C@H](C)NC(=O)[C@@H]2CCCN2C(=O)[C@H](C(c2ccccc2)c2ccccc2)NC(=O)[C@H](Cc2c[nH]cn2)NC(=O)[C@H]([C@@H](C)O)NC(=O)[C@@H](NC(=O)CC(C)C)CSSC1(C)C)C(=O)N[C@H](CCCCN)C(N)=O [compound 104] (Isovaleryl-CTH[Dip]PAI[dPen][β3hF]K([Ahx-Palmitoyl])[dK]-NH2; disulfide 1-8)
12 | 10 to 100 | CCCCCCCCCCCCCCCC(=O)NCCCCCC(=O)NCCCC[C@H](NC(=O)C[C@H](Cc1ccccc1)NC(=O)[C@@H]1CSSC[C@H](NC(=O)[C@@H]2CCCN2C(=O)[C@@H](NC(=O)[C@H](Cc2c[nH]cn2)NC(=O)[C@@H](NC(=O)[C@H](CCC(=O)O)NC(=O)CC(C)C)[C@@H](C)O)C(c2ccccc2)c2ccccc2)C(=O)N[C@@H]([C@@H](C)CC)C(=O)N1)C(=O)N[C@H](CCCCN)C(N)=O [Compd 7] (Isovaleryl-ETH[Dip]PCIC[β3hF]K([Ahx-Palmitoyl])[dK]-NH2; disulfide 6-8)

Same assay, conditions: ferroportin-GFP internalization/degradation, HEK293 cells; Table 6E; read-out: FPN IC50

Row | DC50 [nM] | SMILES
13 | 10 to 100 | CC(C)CC(=O)N[C@@H](CCC(=O)O)C(=O)N[C@H](C(=O)N[C@@H](Cc1c[nH]cn1)C(=O)N[C@H](C(=O)N1CCC[C@H]1C(=O)N[C@@H]1C(=O)N[C@H](C(=O)N[C@@H](CCCCNC(=O)COCCOCCNC(=O)COCCOCCNC(=O)[C@H](CN)NC(=O)CCCCCCCCCCCCCCCCC(=O)O)C(=O)N[C@H](CC(=O)N[C@H](CCCCN)C(N)=O)Cc2ccccc2)C(C)(C)SSC1(C)C)C(c1ccccc1)c1ccccc1)[C@@H](C)O [compound 274] (Isovaleryl-ETH[Dip]P[Pen][Pen]K([AEEA-AEEA-Dap-C18 diacid])[β3hF][dK]-NH2; disulfide 6-7)
14 | 10 to 100 | CC(C)CC(=O)N[C@@H](CCC(=O)O)C(=O)N[C@H](C(=O)N[C@@H](Cc1c[nH]cn1)C(=O)N[C@H](C(=O)N1CCC[C@H]1C(=O)N[C@H]1CSSC[C@@H](C(=O)N(C)[C@@H](CCCCNC(=O)COCCOCCNC(=O)COCCOCCNC(=O)[C@H](CN)NC(=O)CCCCCCCCCCCCCCCCC(=O)O)C(=O)N[C@H](CC(=O)N[C@H](CCCCN)C(N)=O)Cc2ccccc2)N(C)C1=O)C(c1ccccc1)c1ccccc1)[C@@H](C)O [compound 278] (Isovaleryl-ETH[Dip]PC[NMeC][NMeK]([AEEA-AEEA-Dap-C18 diacid])[β3hF][dK]-NH2; disulfide 6-7)
15 | 100 to 500 | CC(C)CC(=O)N[C@@H](CCC(=O)O)C(=O)N[C@H](C(=O)N[C@@H](Cc1ccc(C(F)(F)F)cc1)C(=O)N[C@H](C(=O)N1CCC[C@H]1C(=O)N[C@H]1CSSC[C@@H](C(=O)N(C)[C@@H](CCCCNC(=O)COCCOCCNC(=O)COCCOCCNC(=O)[C@H](CN)NC(=O)CCCCCCCCCCCCCCCCC(=O)O)C(=O)N[C@H](CC(=O)N[C@H](CCCCN)C(N)=O)Cc2ccccc2)NC1=O)C(c1ccccc1)c1ccccc1)[C@@H](C)O [compound 286] (Isovaleryl-ET[Phe(4-CF3)][Dip]PCC[NMeK]([AEEA-AEEA-Dap-C18 diacid])[β3hF][dK]-NH2; disulfide 6-7)
